Tests used:
[1] = test system: cells with activating c-kit mutations; details: mutations in the catalytic region; cited from earlier work
MAP4K4 (HGK) = MAP4K4 (HGK) (Homo sapiens, UniProt O95819); assay: HGK biochemical assay (AlphaScreen); details: 10 μM ATP
Protocol: Substrate was 10 nM biotin-ERM (T567/T564/T558, Cell Signaling, Inc., cat#1344). MAP4K4 kinase was at 0.5 ng per sample.

c-kit = c-kit (Homo sapiens, UniProt P10721); assay: c-kit assays of Examples 40 and 41 (AlphaScreen kinase assays at 10 and 100 μM ATP, 33P-ATP filter assay, M-07e SCF-stimulated proliferation and phosphorylation)
Chain of c-kit (P10721 with tags, fused parts or gaps): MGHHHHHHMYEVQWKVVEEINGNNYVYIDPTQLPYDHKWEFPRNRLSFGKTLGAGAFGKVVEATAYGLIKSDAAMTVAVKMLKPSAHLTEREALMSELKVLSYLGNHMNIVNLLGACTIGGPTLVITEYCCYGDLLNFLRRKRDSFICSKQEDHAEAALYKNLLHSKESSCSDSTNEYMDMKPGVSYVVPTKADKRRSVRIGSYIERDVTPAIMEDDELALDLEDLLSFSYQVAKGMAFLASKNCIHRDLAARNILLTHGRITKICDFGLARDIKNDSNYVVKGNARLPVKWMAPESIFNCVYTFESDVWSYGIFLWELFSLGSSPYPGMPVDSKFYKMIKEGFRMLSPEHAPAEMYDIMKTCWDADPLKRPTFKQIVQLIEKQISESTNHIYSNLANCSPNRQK

TrkA kinase = target: T1, TrkA kinase (Homo sapiens, UniProt P04629); assay: TrkA biochemical assay (AlphaScreen); details: 100 μM ATP
T1 construct: purchased Upstate Biotech #14-571
T1 sequence (P04629 33-796): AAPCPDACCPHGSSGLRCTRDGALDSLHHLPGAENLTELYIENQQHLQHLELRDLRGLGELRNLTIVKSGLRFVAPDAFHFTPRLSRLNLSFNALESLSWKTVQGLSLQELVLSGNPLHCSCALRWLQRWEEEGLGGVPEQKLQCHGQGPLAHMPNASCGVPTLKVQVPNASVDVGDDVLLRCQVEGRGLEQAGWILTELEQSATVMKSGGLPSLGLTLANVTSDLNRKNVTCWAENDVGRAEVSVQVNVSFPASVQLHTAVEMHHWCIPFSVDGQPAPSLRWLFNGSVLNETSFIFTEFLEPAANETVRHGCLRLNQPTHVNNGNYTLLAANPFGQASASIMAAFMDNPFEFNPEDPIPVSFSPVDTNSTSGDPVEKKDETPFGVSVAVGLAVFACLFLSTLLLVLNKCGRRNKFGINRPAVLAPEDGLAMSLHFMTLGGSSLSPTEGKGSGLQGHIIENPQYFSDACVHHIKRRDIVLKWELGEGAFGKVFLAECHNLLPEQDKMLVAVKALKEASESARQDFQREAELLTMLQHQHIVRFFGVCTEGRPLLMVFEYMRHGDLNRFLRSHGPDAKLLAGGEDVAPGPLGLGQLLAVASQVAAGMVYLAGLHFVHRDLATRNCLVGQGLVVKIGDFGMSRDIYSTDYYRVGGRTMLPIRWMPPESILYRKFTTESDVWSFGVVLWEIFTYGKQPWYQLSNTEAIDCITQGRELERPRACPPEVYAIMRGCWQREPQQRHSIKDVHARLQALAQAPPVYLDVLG

Chain of MAP4K4 (HGK) (O95819 whole entry): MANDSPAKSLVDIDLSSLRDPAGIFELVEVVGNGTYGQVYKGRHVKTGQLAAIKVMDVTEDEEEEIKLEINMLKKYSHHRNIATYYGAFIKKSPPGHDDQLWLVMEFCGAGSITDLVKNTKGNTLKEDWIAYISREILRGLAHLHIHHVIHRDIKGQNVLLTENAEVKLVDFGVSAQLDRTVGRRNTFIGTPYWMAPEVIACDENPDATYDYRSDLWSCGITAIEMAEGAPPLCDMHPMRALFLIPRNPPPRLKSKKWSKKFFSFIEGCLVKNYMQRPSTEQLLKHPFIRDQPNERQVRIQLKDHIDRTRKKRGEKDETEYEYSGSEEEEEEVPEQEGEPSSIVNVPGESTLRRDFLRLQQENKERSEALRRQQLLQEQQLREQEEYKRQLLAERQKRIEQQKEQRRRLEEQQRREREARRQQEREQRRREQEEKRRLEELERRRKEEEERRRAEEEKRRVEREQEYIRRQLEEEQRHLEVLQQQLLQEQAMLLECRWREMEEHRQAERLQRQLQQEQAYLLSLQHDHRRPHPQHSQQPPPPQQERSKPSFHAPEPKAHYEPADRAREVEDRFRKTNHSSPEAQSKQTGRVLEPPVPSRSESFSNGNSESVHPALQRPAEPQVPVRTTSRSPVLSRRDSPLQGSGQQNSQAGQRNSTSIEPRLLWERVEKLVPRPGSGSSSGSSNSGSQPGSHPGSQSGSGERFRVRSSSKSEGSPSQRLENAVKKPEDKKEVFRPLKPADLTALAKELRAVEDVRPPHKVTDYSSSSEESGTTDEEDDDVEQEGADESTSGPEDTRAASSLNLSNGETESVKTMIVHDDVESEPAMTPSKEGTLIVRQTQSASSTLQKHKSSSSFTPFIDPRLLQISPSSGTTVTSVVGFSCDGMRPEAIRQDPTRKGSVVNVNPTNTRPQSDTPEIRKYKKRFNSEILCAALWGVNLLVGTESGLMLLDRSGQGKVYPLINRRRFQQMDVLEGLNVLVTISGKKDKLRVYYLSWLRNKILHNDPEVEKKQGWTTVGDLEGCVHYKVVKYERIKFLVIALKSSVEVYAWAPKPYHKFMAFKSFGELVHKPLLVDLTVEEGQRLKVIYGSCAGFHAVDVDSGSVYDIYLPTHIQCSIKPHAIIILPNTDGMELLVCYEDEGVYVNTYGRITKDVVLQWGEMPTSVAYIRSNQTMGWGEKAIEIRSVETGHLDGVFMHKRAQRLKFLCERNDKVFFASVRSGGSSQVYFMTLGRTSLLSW

| Compound | inhibition of cells with c-kit mutations [1] | IC50 (MAP4K4 (HGK)) | IC50 (c-kit) | IC50 (TrkA kinase) |
| --- | --- | --- | --- | --- |
| Cc1ccc(NC(=O)c2ccc(CN3CCN(C)CC3)cc2)cc1Nc1nccc(-c2cccnc2)n1 [STI571] | did not inhibit the cells | – | – | – |
| Cn1cc(-c2cnc3[nH]cc(Cc4ccc(NCc5ccc(C(F)(F)F)nc5)nc4Cl)c3c2)cn1 [P-0179, {6-Chloro-5-[5-(1-methyl-1H-pyrazol-4-yl)-1H-pyrrolo[2,3-b]pyridin-3-ylmethyl]-pyridin-2-yl}-(6-trifluoromethyl-pyridin-3-ylmethyl)-amine] | – | < 1 µM | < 1 µM | < 1 µM |
